{
  "source": "patent EP2399598B1",
  "about": "“Blockade of CCL18 signaling via CCR6 as a therapeutic option in fibrotic diseases and cancer” (Universitätsklinikum Freiburg, priority 2010, dated 2014)",
  "test_system": "CCR6",
  "assay": "Inhibition of CCL18-induced CCR6 down-regulation on mononuclear cells (flow cytometry)",
  "type": "cell-based",
  "details": "freshly isolated human lymphocytes/PBMNC, 20 minutes, FACS; for CCL18 induced down-regulation of CCR6 expression: CCL18 10 ng/ml plus inhibitor 100 ng/ml",
  "experimental": "Freshly isolated mononuclear cells were incubated for 20 minutes with 10 ng/ml of CCL18, 100ng/ml of the inhibitor peptide PS-AU-105 (polypeptide according to SEQ ID NO.:1), a combination of both or were left untreated. The incubation was performed in RPMI1640 with 10% fetal calf serum and 100 U/ml Streptomycin/Penicillin at 37°C. After the incubation, the cells were centrifugated and the supernatant was discarded. The cells were fixed with 4% paraformaldehyde for 5 minutes on ice and washed twice in PBS containing 1% FCS. After fixation the cells were stained using a fluorescein-conjugated antibody against CCR6 (R&D systems, Wiesbaden, FRG) and analyzed by flow cytometry (FACScalibur and Quantiquest; both Beckon Dickinson, Franklin Lakes, USA).\nThis CCL18 induced redaction of CCR6 expression is diminished in the presence of the inhibitor peptide PS-AU-105 (polypeptide according to SEQ ID No.: 1).",
  "note": "“Also recorded” adds a separate entry of the source.",
  "data": [
    {"substance": "PS-AU-105: inhibitor peptide, polypeptide according to SEQ ID NO.:1; 29 amino acids, artificial, peptide inhibitor of CCR6 (EDCCLVYTSWQIHPKFIVDYSETSPQCPK)", "values": [
      {"measurement": "CCL18 induced down-regulation of CCR6 expression", "result": "diminished; also recorded: fails to down-regulate the CCR6^+ sub-population"},
      {"measurement": "CCL18 induced down-regulation of CCR6 expression", "setting": "listed as PS-AU-1015", "result": "this down-regulation docs not occur"},
      {"measurement": "CCR6 expression, inhibitor only", "setting": "inhibitor 100 ng/ml alone", "result": "no effect"}
    ]}
  ]
}
